Like-named read-outs stand apart in the source and are kept apart here. Values belong to the molecule of their own block, whether it stands above or below them.
Tests used:
CFTR [1] = biological target: T1, CFTR (Homo sapiens, UniProt P13569); experiment: Membrane Potential Dye, Enteroid Assay B; type: cell-based; details: for EC50: read-out: Ent. B EC50
Procedure, shortened: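 Enteroid cells loaded 25 min at room temperature with 20 μM methyl oxonol plus 30 μM CaCCinh-A01 and 30 μM Chicago Sky Blue, then switched to chloride-free gluconate buffer. Chloride transport was started by chloride-free stimulation solution, with fluorescence read for 15 min.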

CFTR [2] = biological target: T1, CFTR; experiment: Membrane Potential Dye, Enteroid Assay A; type: cell-based; details: for EC50: read-out: Ent. A EC50
Procedure, shortened: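 Signal is reported as % Activity relative to a triple CFTR modulator control (3 μM + 3 μM + 300 nM acute). Read-out: membrane potential fluorescence (20 μM methyl oxonol) monitored for 15 min after chloride-free stimulation. Dye loading took 25 min at room temperature in Bath 1 buffer containing CaCC blockers.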

F508del = biological target: T2, F508del (Homo sapiens, UniProt P13569, DEL508-508); experiment: 3T3 assay: membrane potential optical assay for F508del correction in NIH 3T3 cells; type: cell-based; details: NIH 3T3 cells, F508del correction
T2 construct: expressed in transfected cells
T2 sequence (P13569 with tags, fused parts or gaps DEL508-508): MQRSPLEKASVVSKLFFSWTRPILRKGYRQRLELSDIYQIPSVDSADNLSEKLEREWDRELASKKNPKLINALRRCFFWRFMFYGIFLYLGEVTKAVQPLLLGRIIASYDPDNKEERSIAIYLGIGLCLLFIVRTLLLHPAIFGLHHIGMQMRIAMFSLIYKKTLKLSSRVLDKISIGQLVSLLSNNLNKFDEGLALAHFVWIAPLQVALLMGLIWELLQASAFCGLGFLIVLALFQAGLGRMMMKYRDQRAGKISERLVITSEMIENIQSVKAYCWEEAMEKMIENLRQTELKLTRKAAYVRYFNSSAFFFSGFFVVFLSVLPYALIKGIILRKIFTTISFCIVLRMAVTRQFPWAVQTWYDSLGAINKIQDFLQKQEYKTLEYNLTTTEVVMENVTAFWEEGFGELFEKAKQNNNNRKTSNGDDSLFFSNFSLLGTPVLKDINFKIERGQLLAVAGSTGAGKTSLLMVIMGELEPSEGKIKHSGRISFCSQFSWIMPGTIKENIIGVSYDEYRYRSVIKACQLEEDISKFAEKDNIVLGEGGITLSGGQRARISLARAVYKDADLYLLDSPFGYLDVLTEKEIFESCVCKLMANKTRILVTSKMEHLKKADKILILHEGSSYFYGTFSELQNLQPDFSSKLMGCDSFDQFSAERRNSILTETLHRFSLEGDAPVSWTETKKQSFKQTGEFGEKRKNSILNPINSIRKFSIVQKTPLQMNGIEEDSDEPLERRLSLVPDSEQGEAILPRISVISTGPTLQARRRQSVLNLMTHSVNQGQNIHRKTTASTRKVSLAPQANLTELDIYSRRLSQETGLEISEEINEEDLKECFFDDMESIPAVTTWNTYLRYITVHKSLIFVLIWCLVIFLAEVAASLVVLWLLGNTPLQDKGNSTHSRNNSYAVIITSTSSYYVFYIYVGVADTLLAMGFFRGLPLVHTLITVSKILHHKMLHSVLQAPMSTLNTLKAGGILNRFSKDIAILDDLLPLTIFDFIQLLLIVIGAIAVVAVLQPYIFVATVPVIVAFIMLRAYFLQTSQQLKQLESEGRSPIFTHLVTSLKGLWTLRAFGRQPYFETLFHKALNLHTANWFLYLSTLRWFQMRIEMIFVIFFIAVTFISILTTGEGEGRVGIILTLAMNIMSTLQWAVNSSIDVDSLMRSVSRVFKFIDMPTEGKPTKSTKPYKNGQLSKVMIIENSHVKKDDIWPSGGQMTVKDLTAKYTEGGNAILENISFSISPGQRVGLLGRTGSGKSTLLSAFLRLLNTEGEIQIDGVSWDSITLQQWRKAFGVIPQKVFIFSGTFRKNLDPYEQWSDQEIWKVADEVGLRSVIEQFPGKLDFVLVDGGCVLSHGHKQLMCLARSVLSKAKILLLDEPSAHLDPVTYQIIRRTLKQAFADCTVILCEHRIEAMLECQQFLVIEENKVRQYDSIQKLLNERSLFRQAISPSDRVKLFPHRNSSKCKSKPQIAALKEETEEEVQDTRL
Procedure, shortened: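 NIH 3T3 mouse fibroblasts stably expressing F508del were incubated with corrector compounds at a range of concentrations for 16–24 h at 37° C, then loaded with a redistribution voltage-sensing dye. A single addition of forskolin under a chloride gradient (gluconate-substituted bath, pH 7.4) gave the membrane-potential response, read by FLIPR.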

T1 sequence (P13569 with tags, fused parts or gaps DEL508-508): as above

Ent. B Max Activity (CFTR [1]; Table 9): +++ (+++ is >60%) | EC50 (CFTR [1]; Table 9): 1 to 3 µM
Structure (SMILES): Cc1cccc(C)c1-c1cc2nc(n1)NS(=O)(=O)c1cc(n(C)n1)C(=O)N[C@H](CC(C)C)CO2 [Compound 76, (10R)-15-(2,6-Dimethylphenyl)-10-isobutyl-6-methyl-3,3-dioxo-12-oxa-3λ^6-thia-2,5,6,9,16,17-hexazatricyclo[11.3.1.14,7]octadeca-1(17),4,7(18),13,15-pentaen-8-one]
ring closure, yield after HPLC (from Cc1cccc(C)c1-c1cc(OC[C@H](N)CC(C)C)nc(NS(=O)(=O)c2cc(C(=O)O)n(C)n2)n1, amide bond, 13-membered ring, HATU/DIEA, DMF, 3.1 mM, 25.0 °C, 2.0 h): 33%

Ent. A Max Activity (CFTR [2]; Enteroid Assay A): +++ (+++ is >600%) | EC50 (CFTR [2]; Enteroid Assay A): 3 to 30 µM | Ent. B Max Activity (CFTR [1]; Enteroid Assay B): ++ (++ is 30-60%) | EC50 (CFTR [1]; Enteroid Assay B): 3 to 30 µM
Structure (SMILES): Cc1cccc(C)c1-c1cc2nc(n1)NS(=O)(=O)c1cccc(c1)C(=O)NC[C@@H](C)O2 [Compound 28, (10R)-6-(2,6-dimethylphenyl)-10-methyl-2,2-dioxo-9-oxa-2λ^6-thia-3,5,12,19-tetrazatricyclo[12.3.1.14,8]nonadeca-1(18),4(19),5,7,14,16-hexaen-13-one]
ring closure, yield after HPLC (from Cc1cccc(C)c1-c1cc(O[C@H](C)CN)nc(NS(=O)(=O)c2cccc(C(=O)O)c2)n1, amide bond, 13-membered ring, HATU/DIEA, DMF, 46.7 mM, 25.0 °C, 1.0 h, 2 steps): 46%

EC50 (F508del): < 1 µM | Ent. A Max Activity (CFTR [2]; Enteroid Assay A): +++ (+++ is >600%) | EC50 (CFTR [2]; Enteroid Assay A): < 1 µM
Structure (SMILES): Cc1cccc(C)c1-c1cc2nc(n1)NS(=O)(=O)c1cccc(c1)C(=O)N[C@H](CC1CCC1)CO2 [Compound 113, (11R)-11-(cyclobutylmethyl)-6-(2,6-dimethylphenyl)-9-oxa-2λ^6-thia-3,5,12,19-tetraazatricyclo[12.3.1.14,8]nonadeca-1(17),4,6,8(19),14(18),15-hexaene-2,2,13-trione]
ring closure, yield after HPLC (from Cc1cccc(C)c1-c1cc(OC[C@H](N)CC2CCC2)nc(NS(=O)(=O)c2cccc(C(=O)O)c2)n1, amide bond, 13-membered ring, HATU/DIEA, DMF, 65.5 mM, 25.0 °C, 1.0 h, 2 steps): 21%

EC50 (F508del): < 1 µM | Ent. A Max Activity (CFTR [2]; Enteroid Assay A): +++ (+++ is >600%) | EC50 (CFTR [2]; Enteroid Assay A): < 1 µM
Structure (SMILES): Cc1cccc(C)c1-c1cc2nc(n1)NS(=O)(=O)c1cccc(c1)C(=O)N[C@H](CCC(C)C)CO2 [Compound 46, (11R)-6-(2,6-dimethylphenyl)-11-(3-methylbutyl)-9-oxa-2λ^6-thia-3,5,12,19-tetraazatricyclo[12.3.1.14,8]nonadeca-1(17),4,6,8(19),14(18),15-hexaene-2,2,13-trione]
ring closure, yield after HPLC (from Cc1cccc(C)c1-c1cc(OC[C@H](N)CCC(C)C)nc(NS(=O)(=O)c2cccc(C(=O)O)c2)n1, amide bond, 13-membered ring, HATU/DIEA, DMF, 9.1 mM, 25.0 °C, 1.0 h, 3 steps): 3%

EC50 (F508del): < 1 µM | Ent. A Max Activity (CFTR [2]; Enteroid Assay A): +++ (+++ is >600%) | EC50 (CFTR [2]; Enteroid Assay A): < 1 µM
Structure (SMILES): Cc1cc2cc(c1)S(=O)(=O)Nc1nc(cc(-c3c(C)cccc3C)n1)OC[C@@H](CC1CCCCC1)NC2=O [Compound 74, (11R)-11-(Cyclohexylmethyl)-6-(2,6-dimethylphenyl)-16-methyl-2,2-dioxo-9-oxa-2λ^6-thia-3,5,12,19-tetrazatricyclo[12.3.1.14,8]nonadeca-1(18),4(19),5,7,14,16-hexaen-13-one]
ring closure, yield after HPLC (from Cc1cc(C(=O)O)cc(S(=O)(=O)Nc2nc(OC[C@H](N)CC3CCCCC3)cc(-c3c(C)cccc3C)n2)c1, amide bond, 13-membered ring, HATU/TEA, DMF, 39.0 mM, 0.42 h): 28%

Further lines, the molecule ahead of its results:

Structure (SMILES): Cc1cccc(C)c1-c1cc2nc(n1)NS(=O)(=O)c1cccc(c1)C(=O)NC[C@@H](c1ccccc1)O2 [Compound 25, (10R)-6-(2,6-Dimethylphenyl)-2,2-dioxo-10-phenyl-9-oxa-2λ^6-thia-3,5,12,19-tetrazatricyclo[12.3.1.14,8]nonadeca-1(18),4(19),5,7,14,16-hexaen-13-one]
ring closure, yield after HPLC (from Cc1cccc(C)c1-c1cc(O[C@@H](CN)c2ccccc2)nc(NS(=O)(=O)c2cccc(C(=O)O)c2)n1, amide bond, 13-membered ring, HATU/DIEA, DMF, 25.9 mM, 25.0 °C, 1.0 h, 2 steps): 23% | Ent. A Max Activity (CFTR [2]; Enteroid Assay A): +++ (+++ is >600%) | EC50 (CFTR [2]; Enteroid Assay A): < 1 µM | Ent. B Max Activity (CFTR [1]; Enteroid Assay B): ++ (++ is 30-60%) | EC50 (CFTR [1]; Enteroid Assay B): < 1 µM

Structure (SMILES): Cc1cccc(C)c1-c1cc2nc(n1)NS(=O)(=O)c1cncc(n1)C(=O)N[C@H](CC(C)C)CO2 [Compound 70, (11R)-6-(2,6-dimethylphenyl)-11-isobutyl-2,2-dioxo-9-oxa-2λ^6-thia-3,5,12,16,18,19-hexazatricyclo[12.3.1.14,8]nonadeca-1(18),4(19),5,7,14,16-hexaen-13-one]
ring closure, yield after HPLC (from Cc1cccc(C)c1-c1cc(OC[C@H](N)CC(C)C)nc(NS(=O)(=O)c2cncc(C(=O)O)n2)n1, amide bond, 13-membered ring, HATU/DIEA, DMF, 18.6 mM, 25.0 °C, 25.0 h): 29% | Ent. B Max Activity (CFTR [1]; Table 9): +++ (+++ is >60%) | EC50 (CFTR [1]; Table 9): < 1 µM

Structure (SMILES): Cc1cccc(C)c1-c1cc2nc(n1)NS(=O)(=O)c1cccc(c1)NC(=O)Nc1cccc(c1)O2 [Compound 1, 5-(2,6-Dimethylphenyl)-9,9-dioxo-2-oxa-9λ^6-thia-6,8,15,17,24-pentazatetracyclo[16.3.1.13,7.110,14]tetracosa-1(21),3,5,7(24),10(23),11,13,18(22),19-nonaen-16-one]
EC50 (F508del): 1 to 3 µM | ring closure, yield after HPLC (from 3-amino-N-[4-(3-aminophenoxy)-6-(2,6-dimethylphenyl)pyrimidin-2-yl]benzenesulfonamide (Dihydrochloride salt), crosslinker bond, 15-membered ring, 1,3-dimethyl-tetrahydro-pyrimidin-2-one, 26.2 mM): 13% | Ent. A Max Activity (CFTR [2]; Enteroid Assay A): ++ (++ is 30-60%) | EC50 (CFTR [2]; Enteroid Assay A): 1 to 3 µM

Structure (SMILES): Cc1cccc(C)c1-c1cc2nc(n1)NS(=O)(=O)c1cccc(c1)C(=O)NCC(c1ccc(C(C)(C)C)cc1)O2 (stereo not shown) [Compound 3, 10-(4-tert-butylphenyl)-6-(2,6-dimethylphenyl)-2,2-dioxo-9-oxa-2λ^6-thia-3,5,12,19-tetrazatricyclo[12.3.1.14,8]nonadeca-1(18),4(19),5,7,14,16-hexaen-13-one]
ring closure, yield after HPLC (from Cc1cccc(C)c1-c1cc(Cl)nc(NS(=O)(=O)c2cccc(C(=O)NCC(O)c3ccc(C(C)(C)C)cc3)c2)n1, snar bond, 13-membered ring, NaH, NMP, 8.5 mM, 90.0 °C, 2.5 h): 12% | Ent. A Max Activity (CFTR [2]; Table 8): +++ (+++ is >60%) | EC50 (CFTR [2]; Table 8): < 1 µM

Structure (SMILES): COC[C@H]1NC(=O)c2cccc(c2)S(=O)(=O)Nc2nc(cc(-c3c(C)cccc3C)n2)O[C@@H]1c1ccc(C(C)(C)C)cc1 (single isomer, unassigned) [Compound 44]
ring closure, yield after HPLC (from COC[C@@H](N)[C@H](Oc1cc(-c2c(C)cccc2C)nc(NS(=O)(=O)c2cccc(C(=O)O)c2)n1)c1ccc(C(C)(C)C)cc1, amide bond, 13-membered ring, HATU/DIEA, DMF, 162.0 mM, 0.5 h): 8% | Ent. A Max Activity (CFTR [2]; Table 9): +++ (+++ is >60%) | EC50 (CFTR [2]; Table 9): < 1 µM

Structure (SMILES): Cc1cccc(C)c1-c1cc2nc(n1)NS(=O)(=O)c1cccc(c1)C(=O)NCCC(c1ccc(C(C)(C)C)cc1)O2 (stereo not shown) [Compound 55, 10-(4-tert-Butylphenyl)-6-(2,6-dimethylphenyl)-2,2-dioxo-9-oxa-2λ^6-thia-3,5,13,20-tetrazatricyclo[13.3.1.14,8]icosa-1(19),4(20),5,7,15,17-hexaen-14-one]
ring closure, yield after HPLC (from Cc1cccc(C)c1-c1cc(OC(CCN)c2ccc(C(C)(C)C)cc2)nc(NS(=O)(=O)c2cccc(C(=O)O)c2)n1, amide bond, 14-membered ring, HATU/TEA, DMF, 204.0 mM, 50.0 °C, 0.25 h): 18% | Ent. A Max Activity (CFTR [2]; Table 9): ++ (++ is 30-60%) | EC50 (CFTR [2]; Table 9): 1 to 3 µM

Structure (SMILES): Cc1cccc(C)c1-c1cc2nc(n1)NS(=O)(=O)c1cccc(c1)C(=O)NCC(c1cccc(Cl)c1)O2 (stereo not shown) [Compound 32, 10-(3-Chlorophenyl)-6-(2,6-dimethylphenyl)-2,2-dioxo-9-oxa-2λ^6-thia-3,5,12,19-tetrazatricyclo[12.3.1.14,8]nonadeca-1(18),4(19),5,7,14,16-hexaen-13-one]
ring closure, yield after HPLC (from Cc1cccc(C)c1-c1cc(OC(CN)c2cccc(Cl)c2)nc(NS(=O)(=O)c2cccc(C(=O)O)c2)n1, amide bond, 13-membered ring, HATU/DIEA, DMF, 41.6 mM, 25.0 °C, 1.0 h): 27% | Ent. A Max Activity (CFTR [2]; Table 8): +++ (+++ is >60%) | EC50 (CFTR [2]; Table 8): < 1 µM

Structure (SMILES): Cc1cccc(C)c1-c1cc2nc(n1)NS(=O)(=O)c1cccc(c1)C(=O)NCC(c1ccc(C(C)(C)C)cn1)O2 (stereo not shown) [Compound 6, 10-(5-tert-Butyl-2-pyridyl)-6-(2,6-dimethylphenyl)-2,2-dioxo-9-oxa-2λ^6-thia-3,5,12,19-tetrazatricyclo[12.3.1.14,8]nonadeca-1(18),4(19),5,7,14,16-hexaen-13-one]
ring closure, yield after HPLC (from Cc1cccc(C)c1-c1cc(OC(CN)c2ccc(C(C)(C)C)cn2)nc(NS(=O)(=O)c2cccc(C(=O)O)c2)n1, amide bond, 13-membered ring, HATU/DIEA, DMF, 40.9 mM, 25.0 °C, 0.25 h): 33% | EC50 (CFTR [2]; Table 8): < 1 µM

Structure (SMILES): Cc1cccc(C)c1-c1cc2nc(n1)NS(=O)(=O)c1cccc(c1)C(=O)N[C@H](C)[C@@H](c1ccc(C(F)(F)F)cc1)O2 [Compound 41, (10R,11R)-6-(2,6-Dimethylphenyl)-11-methyl-2,2-dioxo-10-[4-(trifluoromethyl)phenyl]-9-oxa-2λ^6-thia-3,5,12,19-tetrazatricyclo[12.3.1.14,8]nonadeca-1(18),4(19),5,7,14,16-hexaen-13-one]
ring closure, yield after HPLC (from Cc1cccc(C)c1-c1cc(O[C@H](c2ccc(C(F)(F)F)cc2)[C@@H](C)N)nc(NS(=O)(=O)c2cccc(C(=O)O)c2)n1, amide bond, 13-membered ring, HATU/NaOtBu, DMF/THF, 96.3 mM, 25.0 °C, 0.33 h, 2 steps): 10% | Ent. A Max Activity (CFTR [2]; Table 9): ++ (++ is 30-60%) | EC50 (CFTR [2]; Table 9): < 1 µM
